{"source": "patent US6737425B1", "about": "“N,N-substituted cyclic amine derivatives” (Eisai Co., Ltd., priority 1998, dated 2004)", "key": {"[1]": {"test_system": "glutamic acid release from rat cerebral cortex slices", "assay": "Inhibitory activity on glutamic acid release (cerebral cortex slices, high-conc. KCl)", "format": "cell-based", "conditions": "glutamic acid release induced with 50 mM KCl, HPLC", "procedure": "Inhibitory Activity on Glutamic Acid Release\nCerebral cortexes were isolated from SD strain male rats (8-week-old) and used to prepare 300 μm×300 μm slices by use of a slice chopper. The prepared slices were incubated at 37° C. for 30 minutes in solution C (120 mM NaCl, 4 mM KCl, 10 mM MgSO4, 16 mM NaHCO3, 10 mM glucose, 1 mM NaH2PO4, 10 mM HEPES-NaOH pH 7.4) in the presence of 95% O2/5% CO2. Thereafter, solution C was exchanged with fresh one, followed by further incubation for 30 minutes.\nThe cerebral cortex slices were incubated in a 24-wells plate for cell culture according to a multi-well method (Brain Res., 402, 255-263, 1987), and the release of glutamic acid was induced with 50 mM KCl. Solution D (120 mM NaCl, 4 mM KCl, 1.2 mM CaCl2, 1 mM MgSO4, 16 mM NaHCO3, 10 mM glucose, 1 mM NaH2PO4, 10 mM HEPES-NaOH pH 7.4) was aerated with 95% O2/5% CO2 and kept at 37° C. and used in this experiment. 50 mM KCl containing the same total amount of K^+ and Na^+ was prepared. Slices corresponding to 1 to 2 mg protein were placed on an upper cup provided with a mesh at the bottom, and 1.3 ml solution C or 50 mM KCl solution was introduced into a lower well, and the upper cup was transferred to a new well. 20 minutes before and 5 minutes after reaction was intiated, the test compound was added to solution D or 50 mM KCl.\nGlutamic acid was quantified by HPLC using fluorescent etor (Ex. 330 nm Em. […]). The eluting solvent used was prepared by diluting 150 ml sodium citrate buffer for automatic amino acid analysis (Wako Pure Chemical Industries) 10-fold with distilled water, then adding MgCl2 thereto at the final concentration of 50 mM, and further diluting it twice with acetonitrile. The flow rate was 2.0 ml/min. The column used was Asahipak (ES-502N Denko, K. K.). The glutamic acid was converted into a derivative by addition, to 50 μl sample, of 50 μl deriving agent (10 mg o-phthalaldehyde/500 μl MeOH, 10 μl b-mercaptopropionic acid, 0.15 M sodium borate buffer pH 9.5, 100 μl) followed by stirring (Neuroscience Lett., 96, 202-206, 1989)."}, "[2]": {"test_system": "rat model with occlusion in the middle cerebral artery", "assay": "Effect (II) of reducing infarct volume in a rat model with occlusion in the middle cerebral artery (permanent occlusion)", "format": "in vivo", "conditions": "for Infarct volume in the cerebral cortex, Mean: from two hours after occlusion, 6 hours, 24 hours after occlusion", "procedure": "Effect (II) of Reducing Infarct volume in a Rat Model with Occlusion in the Middle Cerebral Artery\nThe typical example of the compound of the present invention (the compound in Example 1) was compared with compounds disclosed in JP 8-508037-A (WO 94/25469, U.S. Pat. No. 5,750,525), which have affinity for AMPA receptors and is effective against cellular necrosis after ischemia in anoxia and hypocalcemia.\nThe compound of the present invention was dissolved in physiological saline to be adjusted to a dosage of 10 or 20 mg/kg/h just before use.\nThe control compound was dissolved in physiological saline to be adjusted to a dosage of 3 mg/kg/h just before use.\nOcclusion in the middle cerebral artery was conducted according to the method described above. However, the middle cerebral artery was permanently occluded without removing the nylon embolus.\nTwo hours after the middle cerebral artery was occluded, a syringe containing the medium or the sample (10 or 20 mg/kg/h) was attached to a catheter for intravenous administration, and half (0.31 ml) of the dosage to be infused for 1 hour was intravenously administered for 1 minute. Thereafter, the medium or the sample was administered continuously for 6 hours at a rate of 0.616 ml/h by the use of a syringe pump for infusion. During administration and for 2 hours after administration was finished, the temperature of the rectum was maintained in the range of 37.0 to 38.5° C. in a system for controlling body temperature. After the body temperature control was finished, the animal was returned to a cage and maintained for 1 day in a breeding room.\nTwo hours after the middle cerebral artery was occluded, a syringe containing the medium or the sample (3 mg/kg/h) was attached to a catheter for intravenous administration, and the medium or the sample was administered continuously for 6 hours at a rate of 0.616 ml/h by means of the syringe pump for infusion. During administration and for 2 hours after administration was finished, the temperature of the rectum was maintained in the range of 37.0 to 38.5° C. in the system for controlling body temperature. After the body temperature control was finished, the animal was returned to a cage and maintained for 1 day in a breeding room.\nThe middle cerebral artery was permanently occluded by the nylon embolus, and the infarct volume was measured 24 hours after the occlusion was conducted."}}, "note": "Values joined by “and” are separate entries in the source; they are usually repeats but may differ in a detail not shown here. Equal values may be shown once.", "data": [{"smiles": "CC(C)C(C#N)(CCCN1CCN(CCOc2ccc(F)cc2)CC1)c1ccccc1", "note": "(centres unmarked) [Example 1, 1-[(4-Cyano-5-methyl-4-phenyl)hexyl]-4-[2-(4-fluorophenoxy)ethyl]piperazine]", "values": [{"measurement": "IC50", "setting": "[1]", "result": 3.5, "unit": "µM"}, {"measurement": "degree of reduction of the infarct volume", "setting": "[2]; 10 mg/kg/h i.v.", "result": 15, "unit": "%"}, {"measurement": "Infarct volume in the cerebral cortex, Mean", "setting": "[2]; 10 mg/kg/h i.v. (table: 10 mg/kg)", "result": "260.7±13.1 mm^3 and 260.7 mm^3"}, {"measurement": "degree of reduction of the infarct volume", "setting": "[2]; 20 mg/kg/h i.v.", "result": 30, "unit": "%"}, {"measurement": "Infarct volume in the cerebral cortex, Mean", "setting": "[2]; 20 mg/kg/h i.v. (table: 20 mg/kg)", "result": "215.4±21.3 mm^3 and 215.4 mm^3"}]}]}
